Experimental data published in patent US20230190902A1, “IDENTIFICATION OF HLA-RESTRICTED PRAME PEPTIDE EPITOPES, PRAME-SPECIFIC T CELLS SUITABLE FOR "OFF-THE-SHELF" TREATMENT OF CANCER EXPRESSING PRAME” (Children's National Medical Center, priority 2020, published 2023).
“Also recorded” adds a separate entry of the source.

Legend:
CD4+ T-cells = assay: Intracellular IFN-γ and TNF-α cytokine staining, CD4+ T-cells; assay type: cell-based, human; conditions: 6 h stimulation, 200 ng/peptide/well
Description: (§1) T-cells were stimulated for 6 h with PRAME PepMix or individual PRAME peptides (200 ng/peptide/well) in the presence of anti-CD28 and CD49d antibodies (RD Biosciences, San Jose, Calif., USA) and Brefeldin A (Golgiplug, BD Biosciences). Controls (unstimulated T-cells, actin, SEE) were included in each experiment. Intracellular IFN-γ (BioLegend, San Diego, Calif.) and TNF-α (Miltenyi Biotec, Bergisch Gladbach, Germany) staining were performed on fixed and permeabilized cells (Cytofix/Cytoperm, BD Biosciences). Data was acquired with a CytoFLEX cytometer (Beckman Coulter, Brea, Calif.), and analyzed using FlowJo Flow Cytometry software (FlowJo LLC, Ashland, Oreg.).
(§2) HLA restriction of these peptides was evaluated with intracellular IFN-γ and TNF-α cytokine staining.

PRAME-specific T-cells = assay: Epitope mapping by IFN-γ ELISpot (peptide mini-pools and single 15-mer peptides); assay type: cell-based, human; conditions: 10 μg/well
Description: (§3) PRAME Peptides. The PRAME peptide library consisting of 125 15-mer peptides overlapping by 11 amino acids and spanning the entire sequence of PRAME protein was designed to identify HLA class 1 and HLA class H-restricted epitopes (A&A Labs, San Diego, Calif.) 23 peptide pools comprising 10-12 peptides were prepared so that each 15-mer peptide was included in only two pools (FIGS. 7A and 7B). To determine minimal PRAME epitopes, additional 9-mer peptides overlapping by 8 amino acids spanning immunogenic 15-mer peptides were obtained from A&A Labs, San Diego, Calif. All peptides were reconstituted at 10 μg/μl in DMSO and stored at −80°C. until further use.
Epitope mapping. T-cell response to pools of peptide libraries and individual PRAME peptides were determined. by IFN-γ ELISpot assay. ELISpot assay was performed as previously described. 1×10^5 T-cells/well were plated alone, with actin (negative control), SEB (positive control), each peptide pool (1μg/well) and individual peptide (10 μg/well). IFN-γ spot-forming cells (SFC) were enumerated by Zellnet Consulting (Fort Lee, N.J.).
Responses that were at least 10 SFC/1×10^5 T-cells or greater than two-fold the background level of nonstimulated T-cells or T-cells stimulated with actin were considered positive responses.
In order to map the class 1-restricted responses, a mapping grid consisting of 23 mini-pools comprising 125 individual 15-mer peptides spanning the entire PRAME protein sequence to identify PRAME epitopes eliciting a response by ex-vivo expanded T-cells was used (FIG. 7A). IFN-γ production by PRAME- sensitized T-cells in response to stimulation with mini-pools was measured by ELISpot assay.
T-cell responses to single 15-mer peptides selected from the grid and their neighboring peptides were determined by IFN-γ ELISpot assay (FIG. 3B).

CD8+ T-cells [1] = assay: Intracellular IFN-γ and TNF-α cytokine staining, CD8+ T-cells; assay type: cell-based, human; conditions: 6 h stimulation, 200 ng/peptide/well
Description: as §1, §2

CD8+ T-cells [2] = assay: Minimal 9-mer epitope determination by IFN-γ ELISpot; assay type: cell-based, human; conditions: 9-mers overlapping by 8 amino acids
Description: as §3
(§4) Minimal epitopes recognized by HLA I-restricted cell lines were determined by IFN-γ ELISpot assay. To confirm the restricted HLA allele, anti-human HLA class 1 B35 antigen monoclonal antibody was used in the ELISpot plate (MyBioSource, San Diego, Calif.).
The minimal 9-mer epitopes overlapping by 8 amino acids spanning the 15-mer peptides were determined by IFN-γ ELISpot.

HLA-B*35 = molecular target: T1, HLA-B*35 (Homo sapiens, UniProt P01889, A329T/A93T/A95T/C349S/D201E/D98Y/E176V/E187L/E204Q/E69T/I218V/K202T/L119I/Q94N/R155S/R180L/S121R/S35A/S48A/T118I/V127L/V306I/V36M/Y140F/Y91F); assay: IFN-γ ELISpot with anti-HLA-B*35 antibody (HLA restriction); assay type: cell-based; conditions: versus T-cell product alone (FIG. 3G)
T1 construct: PRAME-specific T-cells were expanded from PBMCs obtained from twelve healthy donors; endogenous in cells; host or cells: ex vivo expanded PRAME-specific T-cell product from healthy donor PBMCs
Description: as §4
To confirm the HLA-B*35 restriction of FPEPEAAQP (SEQ ID NO: 6) further testing was performed using an anti-[…] antibody.

Row | Sequence | IFN-γ and TNF-α release by CD4+ T-cells (CD4+ T-cells) | T-cell response to single 15-mer PRAME peptide, IFN-γ ELISpot (PRAME-specific T-cells; T-cell product of FIG. 3B/3C) | IFN-γ and TNF-α release by CD8+ T-cells (CD8+ T-cells [1]) | IFN-γ secretion upon stimulation with 9-mer (minimal epitope) (CD8+ T-cells [2]) | specificity of T-cell product with anti-HLA-B*35 antibody (HLA-B*35) | specificity of T-cell product with anti-HLA-B*35 antibody (HLA-B*35; listed as FPEPEAAQPM) | T-cell response to single 15-mer PRAME peptide, IFN-γ ELISpot (PRAME-specific T-cells; T-cell product of FIG. 4B/4C)
1 | IPVEVINDLFLKEGA [compound 44] | no specificity | immunogenic | released IFN-γ and TNF-α; also recorded: HLA-I-restricted |  |  |  | 
2 | ASIYSFPEPEAAQPM (ASLYSFPEPEAAQPM) [compound 36] | no specificity | immunogenic | released IFN-γ and TNF-α; also recorded: HLA-I-restricted |  |  |  | 
3 | EQPFIPVEVINDLFL [compound 43] | no specificity | immunogenic | released IFN-γ and TNF-α; also recorded: HLA-I-restricted |  |  |  | 
4 | RLVELAGQSLLKDEA [compound 7] | activated |  | activated |  |  |  | 
5 | FPEPEAAQP |  |  |  | secreted IFN-γ; also recorded: minimal 9-mer peptides | decreased specificity | confirms HLA restriction | 
6 | EKVKRKKNVLRLCCK [compound 50] | released IFN-γ and TNF-α; also recorded: release of IFN-γ and TNF-α |  | no specificity |  |  |  | recognition
7 | VEVLVDLFL |  |  |  | secreted IFN-γ; also recorded: minimal 9-mer peptides |  |  | 
8 | SPEKEEQYIAQFTSQ [compound 70] |  |  |  |  |  |  | recognition
9 | EEQYIAQFTSQFLSL [compound 71] | released IFN-γ and TNF-α; also recorded: release of IFN-γ and TNF-α |  | no specificity |  |  |  | recognition
10 | SFPEPEAAQPMTKKR [compound 37] | no specificity | immunogenic | released IFN-γ and TNF-α; also recorded: HLA-I-restricted |  |  |  | 
